From US12673927B2, “Substituted aminothiazoles as DGKzeta inhibitors for immune activation” (Deutsches Krebsforschungszentrum, priority 2020, dated 2026)

The compounds below were run against T1, human DGKζ (Homo sapiens, UniProt Q13574) (assay: Human DGKζ kinase activity inhibition assay (ADP-Glo)). Settings: intermediates (lacking the R2 side chain; comparative); highest test concentration 20 μM; read-out: IC50 values of intermediates in in vitro human DGKζ kinase activity inhibition assays.
T1 construct: made in house; host or cells: Sf9 insect cells, baculovirus
T1 sequence (Q13574 with tags, fused parts or gaps): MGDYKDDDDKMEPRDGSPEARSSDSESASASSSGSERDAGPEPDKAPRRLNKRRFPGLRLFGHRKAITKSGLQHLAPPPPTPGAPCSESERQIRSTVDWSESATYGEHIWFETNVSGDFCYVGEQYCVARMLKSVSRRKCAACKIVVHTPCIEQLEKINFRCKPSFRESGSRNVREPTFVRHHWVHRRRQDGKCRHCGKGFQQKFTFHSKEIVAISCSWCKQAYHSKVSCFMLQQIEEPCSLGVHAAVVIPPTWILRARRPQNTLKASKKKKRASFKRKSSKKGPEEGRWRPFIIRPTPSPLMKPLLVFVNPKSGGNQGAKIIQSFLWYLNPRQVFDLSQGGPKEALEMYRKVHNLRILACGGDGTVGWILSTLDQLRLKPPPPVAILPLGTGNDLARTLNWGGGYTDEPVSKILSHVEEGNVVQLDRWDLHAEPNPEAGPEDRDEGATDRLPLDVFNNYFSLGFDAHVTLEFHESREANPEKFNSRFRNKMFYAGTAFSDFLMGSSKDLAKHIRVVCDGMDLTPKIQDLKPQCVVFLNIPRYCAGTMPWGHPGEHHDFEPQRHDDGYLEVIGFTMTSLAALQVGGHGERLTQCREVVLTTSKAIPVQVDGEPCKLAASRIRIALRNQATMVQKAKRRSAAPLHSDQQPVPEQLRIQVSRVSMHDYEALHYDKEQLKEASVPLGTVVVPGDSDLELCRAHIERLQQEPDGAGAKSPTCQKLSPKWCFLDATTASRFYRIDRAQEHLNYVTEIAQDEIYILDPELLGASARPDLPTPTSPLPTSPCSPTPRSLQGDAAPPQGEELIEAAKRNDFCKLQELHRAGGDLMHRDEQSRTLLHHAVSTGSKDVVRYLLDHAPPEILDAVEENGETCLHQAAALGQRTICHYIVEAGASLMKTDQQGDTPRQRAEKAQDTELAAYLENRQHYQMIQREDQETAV
Format: biochemical
Protocol: Human DGKζ Kinase Activity Inhibition Assay
Human diacylglycerol kinase zeta (DGKζ) inhibitory activity of compounds of the present invention was quantified employing the human DGKζ kinase activity assay as described in the following paragraphs. In essence, the enzyme activity was measured by quantification of the adenosine-di-phosphate (ADP) generated as a co-product of the enzyme reaction via the “ADP-Glo™ Kinase Assay” kit from the company Promega. This detection system works as follows: In a first step the adenosine-tri-phosphate (ATP) not consumed in the kinase reaction is quantitatively converted to cyclic adenosine-mono-phosphate (cAMP) employing an adenylate cyclase (“ADP-Glo-reagent”), then the adenylate cyclase is stopped and the ADP generated in the kinase reaction is converted to ATP, which subsequently generates in a luciferase-based reaction a glow-luminescence signal (“Kinase Detection Reagent”).
C-terminally FLAG-tagged, recombinant full-length human DGKζ (inhouse expressed in baculovirus infected insect cells, purified using anti-Flag pulldown and size exclusion chromatography) was used as enzyme. As an alternative, commercially available enzyme by Carnabio can be used. As substrate for the kinase, 1,2-dioleoyl-sn-glycerol, reconstituted in octyl-β-D-glucopyranoside micelles, was used. […] Subsequently, 22.55 volumes of a 510 mM solution of octyl-β-D-glucopyranoside (Sigma-Aldrich, Cat. #08001-10G) in 50 mM MOPS buffer (pH 7.4) were added, and the mixture was sonicated in an ultrasonic bath for 20 s. Then 35 volumes of 50 mM MOPS buffer (pH 7.4) were added to yield a solution of 0.28 mM 1,2 dioleoyl-sn-glycerol and 200 mM octyl-β-D-glucopyranoside, which was aliquoted, flash-frozen in liquid nitrogen, and stored at −20° C. until use.
For the assay 50 nl of a 100-fold concentrated solution of the test compound in dimethyl sulfoxide (DMSO, Sigma) was pipetted into either a white 1536-well or a white low-volume 384-well microtiter plate (both Greiner Bio-One, Frickenhausen, Germany). […] The concentration of DGKζ was adjusted depending of the activity of the enzyme lot and was chosen appropriate to have the assay in the linear range, a typical concentration is about 0.1 nM. The reaction was stopped by the addition of 2.5 μL of “ADP-Glo-reagent” (1 to 1.5 diluted with water) and the resulting mixture was incubated at 22° C. for 1 h to convert the ATP not consumed in the kinase reaction completely to cAMP. Subsequently 2.5 μl of the “kinase detection reagent” (1.2 fold more concentrated than recommended by the producer) were added, the resulting mixture was incubated at 22° C. for 1 h and then the luminescence measured with a suitable measurement instrument (e.g. Viewlux™ from Perkin-Elmer). The amount of emitted light was taken as a measure for the amount of ADP generated and thereby for the activity of the DGKζ.
The data were normalised (enzyme reaction without inhibitor=0% inhibition, all other assay components but no enzyme=100% inhibition).

IC50 | SMILES
> 20000 nM | COc1ccc(Nc2nc(N)c(C(=O)c3ccccc3)s2)cc1 [Example 67]
> 20000 nM | Nc1nc(Nc2ccc(F)cc2)sc1C(=O)c1ccc(F)cc1 [Example 65]
> 20000 nM | Nc1nc(Nc2ccc(F)cc2F)sc1C(=O)c1ccccc1 [Example 66]
> 20000 nM | Cc1ccc(C(=O)c2sc(Nc3ccc(F)cc3)nc2N)cc1 [Example 64]
> 20000 nM | Nc1nc(Nc2ccc(F)cc2)sc1C(=O)c1ccccc1 [Example 62]

Same assay, conditions: recombinant full-length human DGKζ, 55 μM ATP, 7 μM 1,2-dioleoyl-sn-glycerol, 20 min at 22° C.; read-out: IC50 in vitro human DGKζ kinase activity inhibition assay

SMILES | IC50
CC(C(N)=O)N(c1cccc(F)c1)c1nc(N)c(C(=O)c2ccccc2)s1 (single isomer, unassigned) [Example 74.2, 2-(N-(4-amino-5-benzoyl-thiazol-2-yl)-3-fluoro-anilino)propanamide] | 81.4 nM
COc1ccc(C(=O)c2sc(N(c3ccc(F)c(F)c3)C(C)C(N)=O)nc2N)cc1 (single isomer, unassigned) [Example 51.1, 2-(N-[4-amino-5-(4-methoxybenzoyl)thiazol-2-yl]-3,4-difluoro-anilino)propanamide] | 8.85 nM
CC(C(N)=O)N(c1ccc(F)c(F)c1)c1nc(N)c(C(=O)c2ccc(OC(F)F)nc2)s1 (single isomer, unassigned) [Example 163.1, 2-(N-[4-amino-5-[6-(difluoromethoxy)pyridine-3-carbonyl]thiazol-2-yl]-3,4-difluoro-anilino)propanamide] | 5 nM
CC(C(N)=O)N(c1nc(N)c(C(=O)c2ccccc2)s1)c1ccccc1F (single isomer, unassigned) [Example 75.2, 2-(N-(4-amino-5-benzoyl-thiazol-2-yl)-2-fluoro-anilino)propanamide] | 214 nM
CC(C(N)=O)N(c1ccc(F)c(Cl)c1)c1nc(N)c(C(=O)c2ccncc2)s1 (single isomer, unassigned) [Example 160.1, 2-(N-[4-amino-5-(pyridine-4-carbonyl)thiazol-2-yl]-3-chloro-4-fluoro-anilino)propanamide] | 115 nM
NC(=O)CN(c1ccc(F)cc1)c1nc(N)c(C(=O)c2ccccc2)s1 (racemic) [Example 71] | 2310 nM
CC(C(N)=O)N(c1ccc(Cl)c(F)c1)c1nc(N)c(C(=O)c2ccc(OC(F)F)nc2)s1 (single isomer, unassigned) [Example 164.2, 2-(N-[4-amino-5-[6-(difluoromethoxy)pyridine-3-carbonyl]thiazol-2-yl]-4-chloro-3-fluoro-anilino)propanamide] | 944 nM
COc1ccc(C(=O)c2sc(N(c3ccc(Cl)c(F)c3)C(C)C(N)=O)nc2N)cn1 (single isomer, unassigned) [Example 172.1, 2-(N-[4-amino-5-(6-methoxypyridine-3-carbonyl)thiazol-2-yl]-4-chloro-3-fluoro-anilino)propanamide] | 24 nM
CC(C(N)=O)N(c1ccc(F)c(F)c1)c1nc(N)c(C(=O)c2ccc(OC(F)F)cc2)s1 (single isomer, unassigned) [Example 49.1, 2-(N-[4-amino-5-[4-(difluoromethoxy)benzoyl]thiazol-2-yl]-3,4-difluoro-anilino)propanamide] | 1030 nM
Cc1ccc(C(=O)c2sc(N(CC(N)=O)c3ccc(F)cc3)nc2N)cc1 (racemic) [Example 72] | 985 nM
CC(C(N)=O)N(c1ccc(Cl)c(F)c1)c1nc(N)c(C(=O)c2ccncc2)s1 (single isomer, unassigned) [Example 56.2, 2-(N-[4-amino-5-(pyridine-4-carbonyl)thiazol-2-yl]-4-chloro-3-fluoro-anilino)propanamide] | 7640 nM
CC(C(N)=O)N(c1ccc(Cl)c(F)c1)c1nc(N)c(C(=O)c2ccc(OCc3ccccc3)cc2)s1 (single isomer, unassigned) [Example 166.1, 2-(N-[4-amino-5-(4-benzyloxybenzoyl)thiazol-2-yl]-4-chloro-3-fluoro-anilino)propanamide] | 2 nM
CC(C(N)=O)N(c1ccc(F)c(F)c1)c1nc(N)c(C(=O)c2ccc(NC(=O)OCc3ccccc3)cc2)s1 (single isomer, unassigned) [Example 167.1, Benzyl N-[4-[4-amino-2-(N-(2-amino-1-methyl-2-oxo-ethyl)-3,4-difluoro-anilino)thiazole-5-carbonyl]phenyl]carbamate] | 3 nM
Cc1cccc(N(c2nc(N)c(C(=O)c3ccccc3)s2)C(C)C(N)=O)c1 (single isomer, unassigned) [Example 76.2, 2-(N-(4-amino-5-benzoyl-thiazol-2-yl)-3-methyl-anilino)propanamide] | 11000 nM
COc1ccc(C(=O)c2sc(N(c3ccc(F)c(F)c3)C(C)C(N)=O)nc2N)cc1 (single isomer, unassigned) [Example 51.2, 2-(N-[4-amino-5-(4-methoxybenzoyl)thiazol-2-yl]-3,4-difluoro-anilino)propanamide] | 872 nM

Other lines, results leading:

IC50 | SMILES
372 nM | CNC(=O)COc1ccc(C(=O)c2sc(N(c3ccc(F)cc3)C(C)C(N)=O)nc2N)cc1 (single isomer, unassigned) [Example 150, 2-(N-[4-amino-5-[4-[2-(methylamino)-2-oxo-ethoxy]benzoyl]thiazol-2-yl]-4-fluoro-anilino)propanamide]
2.66 nM | CC(C(N)=O)N(c1ccc(F)cc1)c1nc(N)c(C(=O)c2ccc(OCC(=O)Nc3ccc(Cl)cc3)cc2)s1 (single isomer, unassigned) [Example 145, 2-(N-[4-amino-5-[4-[2-(4-chloroanilino)-2-oxo-ethoxy]benzoyl]thiazol-2-yl]-4-fluoro-anilino)propanamide]
8.79 nM | CC(C(N)=O)N(c1ccc(F)cc1)c1nc(N)c(C(=O)c2ccc(OCC(=O)NCCC34CC5CC(CC(C5)C3)C4)cc2)s1 (single isomer, unassigned) [Example 144]
111 nM | CC(C)NC(=O)COc1ccc(C(=O)c2sc(N(c3ccc(F)cc3)C(C)C(N)=O)nc2N)cc1 (single isomer, unassigned) [Example 152, 2-(N-[4-amino-5-[4-[2-(isopropylamino)-2-oxo-ethoxy]benzoyl]thiazol-2-yl]-4-fluoro-anilino)propanamide]
405 nM | CC(C(N)=O)N(c1ccc(F)cc1)c1nc(N)c(C(=O)c2ccc(OCC(N)=O)cc2)s1 (single isomer, unassigned) [Example 149, 2-(N-[4-amino-5-[4-(2-amino-2-oxo-ethoxy)benzoyl]thiazol-2-yl]-4-fluoro-anilino)propanamide]
7.37 nM | CC(C(N)=O)N(c1ccc(F)cc1)c1nc(N)c(C(=O)c2ccc(Cl)cc2)s1 (single isomer, unassigned) [Example 38.2, 2-(N-[4-amino-5-(4-chlorobenzoyl)thiazol-2-yl]-4-fluoro-anilino)propanamide]
76.4 nM | CC(C(N)=O)N(c1ccc(F)cc1)c1nc(N)c(C(=O)c2ccc(OCC(=O)NCCN3CCCCC3)cc2)s1 (single isomer, unassigned) [Example 148, 2-(N-[4-amino-5-[4-[2-oxo-2-[2-(1-piperidyl)ethylamino]ethoxy]benzoyl]thiazol-2-yl]-4-fluoro-anilino)propanamide]
21.6 nM | CC(C(N)=O)N(c1ccc(F)cc1)c1nc(N)c(C(=O)c2ccc(OCC(=O)Nc3ccc(C(N)=O)cc3)cc2)s1 (single isomer, unassigned) [Example 146, 4-([2-[4-[4-amino-2-(4-fluoro-N-[2-amino-1-methyl-2-oxo-ethyl]anilino)thiazole-5-carbonyl]phenoxy]acetyl]amino]benzamide]
20.7 nM | Cc1nc(N(c2ccc(F)cc2)C(C)C(N)=O)sc1C(=O)c1ccc(OC(F)F)cc1 (racemic) [Example 54]
34 nM | COc1ccc(C(=O)c2sc(N(c3ccc(F)cc3)C(C)C(N)=O)nc2C)cc1 (single isomer, unassigned) [Example 176.1, 2-(4-fluoro-N-[5-(4-methoxybenzoyl)-4-methyl-thiazol-2-yl]anilino)propanamide]
1000 nM | CC(C(N)=O)N(c1ccc(F)cc1)c1nc(N)c(C(=O)c2ccc(OCc3ccccc3)cc2)s1 (single isomer, unassigned) [Example 170.2, 2-(N-[4-amino-5-(4-benzyloxybenzoyl)thiazol-2-yl]-4-fluoro-anilino)propanamide]
